Source: patent publication US9833497B2, “Human originated EGF domain proteins and use of the same” (CHENGDU SOURCEBIO LIMITED-LIABILITY COMPANY, priority 2013, dated 2017)

What was measured:
Type in all cases: cell-based
Proteus vulgaris = assay: MIC against Gram-negative bacteria: Proteus vulgaris; conditions: for MIC: P. vulgaris
Method in brief: (§1)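 MIC = lowest concentration of recombinant protein showing no growth. Test proteins: purified human-derived EGF domain proteins, two-fold dilution series, three wells per concentration; inoculum 5×10^5 CFU/mL in LB; incubation 37° C with shaking at 175 rpm.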

Proteus mirabilis = assay: MIC against Gram-negative bacteria: Proteus mirabilis; conditions: for MIC: P. mirabilis
Method in brief: as §1

Aeromonas hydrophila = assay: MIC against Gram-negative bacteria: Aeromonas hydrophila; conditions: for MIC: A. hydrophila
Method in brief: as §1

Pseudomonas aeruginosa = assay: MIC against Gram-negative bacteria: Pseudomonas aeruginosa; conditions: for MIC: P. aeruginosa
Method in brief: as §1

E. coli BL21 = assay: MIC against Gram-negative bacteria: E. coli BL21
Method in brief: as §1

Serratia marcescens = assay: MIC against Gram-negative bacteria: Serratia marcescens; conditions: for MIC: S. marcescens
Method in brief: as §1

Moraxella catarrhalis = assay: MIC against Gram-negative bacteria: Moraxella catarrhalis; conditions: for MIC: M. catarrhalis
Method in brief: as §1

Citrobacter diversus = assay: MIC against Gram-negative bacteria: Citrobacter diversus; conditions: for MIC: C. diversus
Method in brief: as §1

E. coli DH5α = assay: Antibacterial activity: MIC and growth curve against E. coli DH5α in 96-well plate; conditions: minimal inhibitory concentration against E. coli DH5α; 96-well plate, 5×10^5 CFU/mL, 37° C., judged after 8 h
Method in brief: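 Log-phase bacteria (OD600 ~0.5) resuspended in LB at 5×10^5 CFU/mL, exposed to recombinant protein at 50, 25, 12.5 μg/mL final in triplicate, 37 °C shaking at 175 rpm. OD600 read every 30 min; MIC is lowest concentration showing no growth.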

Enterobacter cloacae = assay: MIC against Gram-negative bacteria: Enterobacter cloacae; conditions: for MIC: E. cloacae
Method in brief: as §1

Klebsiella pneumonia = assay: MIC against Gram-negative bacteria: Klebsiella pneumonia; conditions: for MIC: K. pneumonia
Method in brief: as §1

[1] = Proteus vulgaris, 5×10^5 CFU/mL, 10 h cultivation at 37° C.
[2] = Proteus mirabilis, 5×10^5 CFU/mL, 10 h cultivation at 37° C.
[3] = Aeromonas hydrophila, 5×10^5 CFU/mL, 10 h cultivation at 37° C.
[4] = Pseudomonas aeruginosa, 5×10^5 CFU/mL, 10 h cultivation at 37° C.
[5] = E. coli BL21, 5×10^5 CFU/mL, 10 h cultivation at 37° C.
[6] = Serratia marcescens, 5×10^5 CFU/mL, 10 h cultivation at 37° C.
[7] = Moraxella catarrhalis, 5×10^5 CFU/mL, 10 h cultivation at 37° C.
[8] = Citrobacter diversus, 5×10^5 CFU/mL, 10 h cultivation at 37° C.
[9] = Enterobacter cloacae, 5×10^5 CFU/mL, 10 h cultivation at 37° C.
[10] = Klebsiella pneumonia, 5×10^5 CFU/mL, 10 h cultivation at 37° C.
[11] = E. coli BL21, 10 h cultivation at 37° C.
[12] = 10 h cultivation at 37° C., 5×10^5 CFU/mL, two-fold serial dilution
[13] = Proteus vulgaris, 96-well plate, 5×10^5 CFU/mL, 37° C., 10 h
[14] = Proteus mirabilis, 96-well plate, 5×10^5 CFU/mL, 37° C., 10 h
[15] = Aeromonas hydrophila, 96-well plate, 5×10^5 CFU/mL, 37° C., 10 h
[16] = Pseudomonas aeruginosa, 96-well plate, 5×10^5 CFU/mL, 37° C., 10 h
[17] = E. coli BL21, 96-well plate, 5×10^5 CFU/mL, 37° C., 10 h
[18] = Serratia marcescens, 96-well plate, 5×10^5 CFU/mL, 37° C., 10 h
[19] = Moraxella catarrhalis, 96-well plate, 5×10^5 CFU/mL, 37° C., 10 h
[20] = Citrobacter diversus, 96-well plate, 5×10^5 CFU/mL, 37° C., 10 h
[21] = Enterobacter cloacae, 96-well plate, 5×10^5 CFU/mL, 37° C., 10 h
[22] = Klebsiella pneumonia, 96-well plate, 5×10^5 CFU/mL, 37° C., 10 h

## PRT1450 (VPSNCDCLNGGTCVSNKYFSNIHWCNCPKKFGGQHCE; listed as Homo sapiens)
Proteus vulgaris; [1]
  MIC against P. vulgaris: 12.5 µg/mL
Proteus mirabilis; [2]
  MIC against P. mirabilis: 25 µg/mL
Aeromonas hydrophila; [3]
  MIC against A. hydrophila: 50 µg/mL
Pseudomonas aeruginosa; [4]
  MIC against P. aeruginosa: 50 µg/mL
E. coli BL21; [5]
  MIC against E. coli BL21: 25 µg/mL
Serratia marcescens; [6]
  MIC against S. marcescens: 25 µg/mL
Moraxella catarrhalis; [7]
  MIC against M. catarrhalis: 12.5 µg/mL
Citrobacter diversus; [8]
  MIC against C. diversus: 25 µg/mL
E. coli DH5α
  MIC: 12.5 µg/mL
Enterobacter cloacae; [9]
  MIC against E. cloacae: 25 µg/mL
Klebsiella pneumonia; [10]
  MIC against K. pneumonia: 12.5 µg/mL

## PRT1401 (VCHPRCIEHGTCKDGKCECREGWNGEHCT; listed as Homo sapiens)
Proteus vulgaris; [1]
  MIC against P. vulgaris: 25 µg/mL
Proteus mirabilis; [2]
  MIC against P. mirabilis: 12.5 µg/mL
Aeromonas hydrophila; [3]
  MIC against A. hydrophila: 25 µg/mL
Pseudomonas aeruginosa; [4]
  MIC against P. aeruginosa: 12.5 µg/mL
E. coli BL21; [5]
  MIC against E. coli BL21: 25 µg/mL
Serratia marcescens; [6]
  MIC against S. marcescens: 12.5 µg/mL
Moraxella catarrhalis; [7]
  MIC against M. catarrhalis: 25 µg/mL
Citrobacter diversus; [8]
  MIC against C. diversus: 12.5 µg/mL
E. coli DH5α
  MIC: 12.5 µg/mL
Enterobacter cloacae; [9]
  MIC against E. cloacae: 12.5 µg/mL
Klebsiella pneumonia; [10]
  MIC against K. pneumonia: 25 µg/mL

## PRT915 (ASSPCLGGNPCYNQGTCEPTSESPFYRCLCPAKFNGLLCH; listed as Homo sapiens)
Proteus vulgaris; 10 h cultivation at 37° C.
  MIC: 25 µg/mL
Proteus mirabilis; 10 h cultivation at 37° C.
  MIC: 25 µg/mL
Aeromonas hydrophila; 10 h cultivation at 37° C.
  MIC: 25 µg/mL
Pseudomonas aeruginosa; 10 h cultivation at 37° C.
  MIC: 50 µg/mL
E. coli BL21; [11]
  MIC: 25 µg/mL
Serratia marcescens; 10 h cultivation at 37° C.
  MIC: 25 µg/mL
Moraxella catarrhalis; 10 h cultivation at 37° C.
  MIC: 50 µg/mL
Citrobacter diversus; 10 h cultivation at 37° C.
  MIC: 25 µg/mL
E. coli DH5α
  MIC: 25 µg/mL
Enterobacter cloacae; 10 h cultivation at 37° C.
  MIC: 12.5 µg/mL
Klebsiella pneumonia; 10 h cultivation at 37° C.
  MIC: 25 µg/mL

## PRT1190 (DLNYCGSHHPCTNGGTCINAEPDQYRCTCPDGYSGRNCE; listed as Homo sapiens)
Proteus vulgaris; [12]
  MIC P. vulgaris: 12.5 µg/mL
Proteus mirabilis; [12]
  MIC P. mirabilis: 25 µg/mL
Aeromonas hydrophila; [12]
  MIC A. hydrophila: 12.5 µg/mL
Pseudomonas aeruginosa; [12]
  MIC P. aeruginosa: 25 µg/mL
E. coli BL21; [12]
  MIC E. coli BL21: 12.5 µg/mL
Serratia marcescens; [12]
  MIC S. marcescens: 50 µg/mL
Moraxella catarrhalis; [12]
  MIC M. catarrhalis: 50 µg/mL
Citrobacter diversus; [12]
  MIC C. diversus: 25 µg/mL
E. coli DH5α
  MIC: 50 µg/mL
Enterobacter cloacae; [12]
  MIC E. cloacae: 50 µg/mL
Klebsiella pneumonia; [12]
  MIC K. pneumonia: 12.5 µg/mL

## PRT117 (DVDECALGRSPCAQGCTNTDGSFHCSCEEGYVLAGEDGTQCQ; listed as Homo sapiens)
Proteus vulgaris; [13]
  MIC (μg/mL) P. vulgaris: 12.5 µg/mL
Proteus mirabilis; [14]
  MIC (μg/mL) P. mirabilis: 25 µg/mL
Aeromonas hydrophila; [15]
  MIC (μg/mL) A. hydrophila: 12.5 µg/mL
Pseudomonas aeruginosa; [16]
  MIC (μg/mL) P. aeruginosa: 25 µg/mL
E. coli BL21; [17]
  MIC (μg/mL) E. coli BL21: 12.5 µg/mL
Serratia marcescens; [18]
  MIC (μg/mL) S. marcescens: 12.5 µg/mL
Moraxella catarrhalis; [19]
  MIC (μg/mL) M. catarrhalis: 12.5 µg/mL
Citrobacter diversus; [20]
  MIC (μg/mL) C. diversus: 25 µg/mL
E. coli DH5α
  MIC: 12.5 µg/mL
Enterobacter cloacae; [21]
  MIC (μg/mL) E. cloacae: 25 µg/mL
Klebsiella pneumonia; [22]
  MIC (μg/mL) K. pneumonia: 12.5 µg/mL

## PRT1003 (STDYCVSAPCFNGGTCVNRPGTFSCLCAMGFQGPRCE; listed as Homo sapiens)
Proteus vulgaris; 10 h cultivation at 37° C.
  MIC: 25 µg/mL
Proteus mirabilis; 10 h cultivation at 37° C.
  MIC: 50 µg/mL
Aeromonas hydrophila; 10 h cultivation at 37° C.
  MIC: 25 µg/mL
Pseudomonas aeruginosa; 10 h cultivation at 37° C.
  MIC: 25 µg/mL
E. coli BL21; [11]
  MIC: 12.5 µg/mL
Serratia marcescens; 10 h cultivation at 37° C.
  MIC: 12.5 µg/mL
Moraxella catarrhalis; 10 h cultivation at 37° C.
  MIC: 25 µg/mL
Citrobacter diversus; 10 h cultivation at 37° C.
  MIC: 12.5 µg/mL
E. coli DH5α
  MIC: 50 µg/mL
Enterobacter cloacae; 10 h cultivation at 37° C.
  MIC: 25 µg/mL
Klebsiella pneumonia; 10 h cultivation at 37° C.
  MIC: 50 µg/mL

## PRT1237 (LGPGCLDNCRGHGDCLREQCICDPGYSGPNCY; listed as Homo sapiens)
Proteus vulgaris; [13]
  MIC against P. vulgaris: 12.5 µg/mL
Proteus mirabilis; [14]
  MIC against P. mirabilis: 25 µg/mL
Aeromonas hydrophila; [15]
  MIC against A. hydrophila: 12.5 µg/mL
Pseudomonas aeruginosa; [16]
  MIC against P. aeruginosa: 25 µg/mL
E. coli BL21; [17]
  MIC against E. coli BL21: 12.5 µg/mL
Serratia marcescens; [18]
  MIC against S. marcescens: 50 µg/mL
Moraxella catarrhalis; [19]
  MIC against M. catarrhalis: 50 µg/mL
Citrobacter diversus; [20]
  MIC against C. diversus: 25 µg/mL
E. coli DH5α
  MIC: 12.5 µg/mL
Enterobacter cloacae; [21]
  MIC against E. cloacae: 12.5 µg/mL
Klebsiella pneumonia; [22]
  MIC against K. pneumonia: 12.5 µg/mL
